Assay results published in publication PMC13386468 (ACS Chemical Biology, 2025).
Where two headings read alike, the source gives them in different places.

Legend:
[1] = target: T1, cAMP-dependent protein kinase catalytic subunit (PfPKAc, PF3D7_0934800) (Plasmodium falciparum, UniProt Q7K6A0); assay: Kinobead competitive pulldown from asexual blood stage parasite lysate, mass spectrometry; type: biochemical
T1 construct: with PfPKAr (PF3D7_1223100)
T1 sequence (Q7K6A0 1-342): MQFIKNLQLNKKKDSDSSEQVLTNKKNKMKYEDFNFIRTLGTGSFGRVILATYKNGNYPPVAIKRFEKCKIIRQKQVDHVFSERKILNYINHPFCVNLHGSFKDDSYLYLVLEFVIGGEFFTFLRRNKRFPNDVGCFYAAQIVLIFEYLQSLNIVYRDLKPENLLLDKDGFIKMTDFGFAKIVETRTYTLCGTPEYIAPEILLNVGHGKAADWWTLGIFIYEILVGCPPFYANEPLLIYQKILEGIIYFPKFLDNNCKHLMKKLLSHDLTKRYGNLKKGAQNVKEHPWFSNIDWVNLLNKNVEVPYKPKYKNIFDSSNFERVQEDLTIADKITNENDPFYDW
T1 sequence (Q7KQK0 1-441 partner): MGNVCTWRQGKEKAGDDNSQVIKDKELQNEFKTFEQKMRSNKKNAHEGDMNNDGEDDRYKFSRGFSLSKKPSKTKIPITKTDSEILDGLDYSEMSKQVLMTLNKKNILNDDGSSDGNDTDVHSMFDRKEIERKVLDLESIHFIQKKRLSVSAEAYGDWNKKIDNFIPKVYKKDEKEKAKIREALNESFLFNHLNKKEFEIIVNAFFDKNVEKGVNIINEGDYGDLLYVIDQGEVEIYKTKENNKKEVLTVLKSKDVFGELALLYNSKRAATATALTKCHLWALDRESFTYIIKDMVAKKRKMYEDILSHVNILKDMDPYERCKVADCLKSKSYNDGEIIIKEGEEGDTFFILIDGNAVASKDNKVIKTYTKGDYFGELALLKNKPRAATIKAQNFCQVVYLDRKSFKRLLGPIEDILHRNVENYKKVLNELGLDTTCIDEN

[2] = test system: T2, Plasmodium falciparum PfNF54 (WT); assay: microbe, parasite or virus in culture; set-up: species or system P. falciparum asexual blood stages; asexual blood stage growth inhibition, modified [3H]-hypoxanthine incorporation; settings: read-out: PfNF54 control (–Shield-1) IC50 (nM)
T2 construct: NF54

[3] = target: Aurora-related kinase 1 (PfArk1, PF3D7_0605300) (Plasmodium falciparum, UniProt C6KSQ1); assay: KinaseSeeker competition binding assay with recombinant kinase; also Kinobead competition (Kd app […]) and conditional knockdown sensitization ([…])
in vitro = assay: in vitro; set-up: HepG2 liver cell cytotoxicity; settings: human, hepg2 cells; read-out: Liver cytotoxicity HepG2 IC50
From the text: (§1) Moderate activity was also observed against immature and late-stage gametocytes, in the low micromolar range, as well as against liver stages, in the submicromolar range (Table and Supplementary Table S3).

[4] = test system: T3, Plasmodium falciparum PfCam3.II; assay: microbe, parasite or virus in culture; set-up: species or system P. falciparum asexual blood stages; asexual blood stage growth inhibition, SYBR Green I read-out; settings: read-out: Mean IC50 ± SEM (µM), SYBR Green I
T3 construct: Cam3.II
Protocol: (§2) Parasite growth inhibition was calculated relative to untreated controls, and IC50 values were determined by fitting dose-response curves. Each assay plate included appropriate growth, vehicle, and positive control wells.

[5] = test system: T4, Plasmodium falciparum PfRF7; assay: microbe, parasite or virus in culture; set-up: species or system P. falciparum asexual blood stages; asexual blood stage growth inhibition, SYBR Green I read-out; settings: read-out: Mean IC50 ± SEM (µM), SYBR Green I
T4 construct: RF7
Protocol: as §2

[6] = test system: T2, Plasmodium falciparum PfNF54 (WT); assay: microbe, parasite or virus in culture; set-up: species or system P. falciparum asexual blood stages; asexual blood stage growth inhibition, SYBR Green I read-out; settings: read-out: Mean IC50 ± SEM (µM), SYBR Green I
Protocol: as §2

[7] = test system: T5, Plasmodium berghei Liver-stage PbLuc; assay: microbe, parasite or virus in culture; set-up: liver-stage Plasmodium berghei luciferase inhibition assay
T5 construct: PbLuc (luciferase reporter)
From the text: as §1

[8] = target: T6, glycogen synthase kinase 3 β (PfGSK3β, PF3D7_0312400) (Plasmodium falciparum, UniProt O77344); assay: KinaseSeeker competition binding assay with recombinant kinase; also Kinobead competition (IC50 […]); settings: read-out: IC50 value ± SEM or SD ^c
T6 sequence (O77344 1-440): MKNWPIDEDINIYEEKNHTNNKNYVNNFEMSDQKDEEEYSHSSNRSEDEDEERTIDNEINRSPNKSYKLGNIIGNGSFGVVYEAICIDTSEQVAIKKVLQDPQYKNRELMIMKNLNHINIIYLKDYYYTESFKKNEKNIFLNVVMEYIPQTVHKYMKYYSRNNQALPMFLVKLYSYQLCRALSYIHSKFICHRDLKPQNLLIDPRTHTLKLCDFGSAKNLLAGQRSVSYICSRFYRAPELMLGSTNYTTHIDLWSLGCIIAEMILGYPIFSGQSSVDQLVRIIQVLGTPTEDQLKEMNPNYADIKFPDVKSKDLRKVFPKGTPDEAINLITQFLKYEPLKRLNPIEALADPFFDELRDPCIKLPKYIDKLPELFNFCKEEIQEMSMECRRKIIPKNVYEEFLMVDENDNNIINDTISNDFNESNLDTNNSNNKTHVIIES

[9] = target: T7, calcium-dependent protein kinase 1 (PfCDPK1, PF3D7_0217500) (Plasmodium falciparum, UniProt P62344); assay: Kinobead competitive pulldown from asexual blood stage parasite lysate, mass spectrometry; type: biochemical
T7 construct: gene CDPK1
T7 sequence (P62344 2-524): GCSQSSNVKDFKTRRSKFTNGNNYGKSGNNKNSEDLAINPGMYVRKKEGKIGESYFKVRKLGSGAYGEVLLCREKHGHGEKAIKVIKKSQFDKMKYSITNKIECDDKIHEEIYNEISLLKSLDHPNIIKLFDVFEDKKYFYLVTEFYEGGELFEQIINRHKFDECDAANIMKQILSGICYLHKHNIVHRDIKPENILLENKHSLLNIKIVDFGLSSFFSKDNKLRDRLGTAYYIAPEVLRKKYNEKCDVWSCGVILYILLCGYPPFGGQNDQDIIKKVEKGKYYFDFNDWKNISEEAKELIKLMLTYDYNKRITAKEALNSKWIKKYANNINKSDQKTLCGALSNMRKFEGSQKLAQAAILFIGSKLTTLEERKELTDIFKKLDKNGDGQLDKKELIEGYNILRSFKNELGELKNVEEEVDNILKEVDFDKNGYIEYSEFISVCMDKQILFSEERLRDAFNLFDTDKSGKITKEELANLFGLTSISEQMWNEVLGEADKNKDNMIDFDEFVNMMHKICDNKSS

[10] = target: T8, 3-phosphoinositide-dependent protein kinase 1 (PfPDK1, PF3D7_1121900) (Plasmodium falciparum, UniProt Q8IIE7); assay: as above; type: biochemical
T8 sequence (Q8IIE7 1-525): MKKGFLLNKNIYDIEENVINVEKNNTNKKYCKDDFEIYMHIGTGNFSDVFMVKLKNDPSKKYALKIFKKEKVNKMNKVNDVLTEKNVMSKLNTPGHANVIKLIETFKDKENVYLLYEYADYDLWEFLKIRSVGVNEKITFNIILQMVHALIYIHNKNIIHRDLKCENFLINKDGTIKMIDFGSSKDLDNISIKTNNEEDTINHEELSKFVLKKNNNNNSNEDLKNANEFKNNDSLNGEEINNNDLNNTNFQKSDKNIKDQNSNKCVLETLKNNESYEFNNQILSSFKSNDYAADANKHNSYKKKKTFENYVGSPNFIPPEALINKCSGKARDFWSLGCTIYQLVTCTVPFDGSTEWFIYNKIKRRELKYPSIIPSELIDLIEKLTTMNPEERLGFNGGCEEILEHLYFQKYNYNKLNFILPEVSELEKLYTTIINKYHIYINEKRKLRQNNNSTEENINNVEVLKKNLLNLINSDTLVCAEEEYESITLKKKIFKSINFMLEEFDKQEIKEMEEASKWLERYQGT

[11] = test system: T9, Plasmodium falciparum PfDd2; assay: microbe, parasite or virus in culture; set-up: species or system P. falciparum asexual blood stages; asexual blood stage growth inhibition, pLDH read-out; settings: read-out: Mean IC50 ± SEM (µM), pLDH
T9 construct: Dd2
Protocol: as §2

[12] = target: T10, Serine/threonine protein kinase ; PF3D7_0605300 ; C6KSQ1 (Plasmodium falciparum, UniProt C6KSQ1); assay: biochemical; set-up: species or system Plasmodium falciparum asexual blood stage lysate; Kinobeads competitive pulldown from asexual blood stage P. falciparum extract, TMT quantitative mass spectrometry, apparent Kd; settings: Kdapp, apparent Kd, Kinobeads competition
T10 sequence (C6KSQ1 1-353): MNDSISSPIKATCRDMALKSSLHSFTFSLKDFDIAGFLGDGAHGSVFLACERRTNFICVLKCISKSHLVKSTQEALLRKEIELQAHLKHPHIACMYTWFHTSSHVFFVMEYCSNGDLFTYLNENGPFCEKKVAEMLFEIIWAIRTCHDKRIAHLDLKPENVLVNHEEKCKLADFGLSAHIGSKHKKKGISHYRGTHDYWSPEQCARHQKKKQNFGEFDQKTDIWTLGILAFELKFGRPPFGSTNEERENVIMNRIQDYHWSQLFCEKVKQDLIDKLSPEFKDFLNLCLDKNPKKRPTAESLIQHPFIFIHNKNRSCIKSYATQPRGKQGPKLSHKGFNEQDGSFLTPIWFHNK
From the text: Eluted kinases are quantified in a dose-dependent manner via mass spectrometry. […] Data and error bars represent the mean and SD from two independent experiments. […] Data are plotted as the mean with error bars representing the SEM where N,n = 3,2.

For `O=c1[nH]c2ccc(Cl)cc2c(N[C@@H]2CN3CCC2CC3)c1-c1nc2ccccc2[nH]1` [CHIR-124], the Kd [1] was 0.61 µM, the IC50 [2] was 36 ± 7 nM and the IC50 [3] was 0.38 ± 0.07 µM. It also gave a CC50 (in vitro) of 4.3 µM, an IC50 [4] of 0.016 ± 0.002 µM and an IC50 [5] of 0.01 ± 0.001 µM. The IC50 [6] was 0.033 ± 0.002 µM, the IC50 [7] was 0.31 µM and the IC50 [8] was 0.2 ± 0.02 µM. For the same molecule, the Kd [9] was 0.04 µM, the Kd [10] was 0.1 µM and the IC50 [11] was 0.44 ± 0.05 µM. For the same molecule, the Kd ([12]; Experiment ID=X048537) was 0.18 µM and the Kd ([12]; Experiment ID=X048538) was 0.156 µM.
